The text below walks through data of ChEMBL document CHEMBL5236595, “JDQ443, a Structurally Novel, Pyrazole-Based, Covalent Inhibitor of KRASG12C for the Treatment of Solid Tumors” (J Med Chem, 2022).

Series [1] in a line: Cysteine reactivity in pH 7.4 phosphate buffer assessed as compound half life at 2 uM in presence of GSH.
Series [2] has as its target GTPase KRas (Homo sapiens, UniProt P01116, G12C). The experiment in a line: Inhibition of KRAS G12C mutant in human NCI-H358 cells assessed as reduction in ERK phosphorylation incubated for 6 hrs by MSD assay. Format: cell-based.
Series [3] relates to GTPase KRas (Homo sapiens), P01116 [G12C]. The series is described as follows: Displacement of [acrylamide-2,3-3H2]-N-(3-fluoro-4-(2-methyl-3-(5-methyl-1H- indazole-4-yl)-1H-pyrrolo[ 2,3-b]pyridin-1-yl)-phenyl from KRAS G12C mutant (unknown origin) assessed as ratio of Kinact/Ki by competitive scintillation proximity assay.
Series [4] has the same test system. The series is described as follows: In vivo target occupancy at KRAS G12C mutant in human MIA PaCa-2 cells xenografted mouse assessed as decrease in free KRAS G12C level at 100 mg/kg, po after 24 hrs. It is filed as functional, organism-based. On the technique in general: In xenograft studies the graft and the host belong to different species.
Series [5] shares this test system. The series is described as follows: In vivo target occupancy at KRAS G12C mutant in human MIA PaCa-2 cells xenografted mouse assessed as decrease in free KRAS G12C level at 100 mg/kg, po after 3 hrs. Format: functional, organism-based.
The nature of series [6]: Aqueous solubility of compound in pH 6.8. It is filed as physicochemical. The conditions noted are these: aqueous medium.
Series [7] is described as follows: Drug concentration in human MIA PaCa-2 cells xenografted mouse blood at 100 mg/kg, po after 40 mins. Format: ADME, organism-based. The conditions noted are these: whole blood, read-out: Drug uptake.
Series [8] in a line: Half life in human MIA PaCa-2 cells xenografted mouse at 100 mg/kg, po. It is filed as ADME, organism-based. The conditions noted are these: in vivo.
Series [9] can be described thus: Lipophilicity, logD of compound at pH 7.4. It is filed as physicochemical. The conditions noted are these: buffer.
A short description of series [10]: Apparent permeability across apical to basolateral side in MDCK-MDR1 cells at 10 uM after 2 hrs by LC-MS/MS analysis. It is filed as ADME, cell-based, Canis lupus familiaris. The conditions noted are these: dog.
Series [11] is described as follows: Cmax in human MIA PaCa-2 cells xenografted mouse at 30 mg/kg, po. It is filed as ADME, organism-based. On the set-up: dose 30 mg/kg, route po. The conditions noted are these: in vivo.
A short description of series [12]: Aqueous solubility of compound in pH 4. It is filed as physicochemical. The conditions noted are these: aqueous medium.
Series [13] can be described thus: AUC in human MIA PaCa-2 cells xenografted mouse at 30 mg/kg, po. More on the design: dose 30 mg/kg, route po. The conditions noted are these: in vivo. Format: ADME, organism-based.
Series [14] has as its system GTPase KRas (Homo sapiens), P01116 [G12C]. The series is described as follows: In vivo target occupancy at KRAS G12C mutant in human MIA PaCa-2 cells xenografted mouse assessed as decrease in free KRAS G12C level at 30 mg/kg, po after 3 hrs. It is filed as functional, organism-based.
The test system is the same in series [15]. The experiment in a line: In vivo target occupancy at KRAS G12C mutant in human MIA PaCa-2 cells xenografted mouse assessed as decrease in […] expression at 30 mg/kg, po after 3 hrs. It is filed as functional, organism-based.
The test system is the same in series [16]. The experiment in a line: In vivo target occupancy at KRAS G12C mutant in human MIA PaCa-2 cells xenografted mouse assessed as decrease in […] expression at 30 mg/kg, po after 24 hrs. Format: functional, organism-based.
Series [17] has the same test system. The experiment in a line: In vivo target occupancy at KRAS G12C mutant in human MIA PaCa-2 cells xenografted mouse assessed as decrease in free KRAS G12C level at 30 mg/kg, po after 24 hrs. It is filed as functional, organism-based.
Series [18] has the same test system. The experiment in a line: In vivo target occupancy at KRAS G12C mutant in human MIA PaCa-2 cells xenografted mouse assessed as decrease in free KRAS G12C level at 30 mg/kg, po after 6 hrs. It is filed as functional, organism-based.
Series [19] shares this test system. The series is described as follows: In vivo target occupancy at KRAS G12C mutant in human MIA PaCa-2 cells xenografted mouse assessed as decrease in […] expression at 30 mg/kg, po after 6 hrs. It is filed as functional, organism-based.

Values after ≈ are worked out from the molar mass of the structure shown. Some results are limits rather than exact numbers.

For orientation: IC50 means the point on the concentration scale where inhibition reaches its midpoint. As usually defined, the solubility is the concentration that dissolves in the medium under given conditions. Low values mean little dissolved substance, high ones much dissolved substance. As a reminder, the half-life is how long it takes for the measured level to halve. The low end stands for fast loss, the high end for slow loss. In general, logD refers to the decadic logarithm of the distribution of all forms, ionised or not, between an organic phase and buffer at a given pH. Low readings indicate a more hydrophilic compound, high ones a more lipophilic compound. The term Papp A→B denotes the apparent permeability from the apical to the basolateral side of a cell layer. The Cmax is the highest concentration seen after dosing. The AUC is the area under the concentration-time curve, a measure of exposure.

Turning to `C=CC(=O)Nc1ccc(-n2nc(C(C)C)c(-c3c(C)ccc4[nH]ncc34)c2C)c(F)c1`, in series [1], the T1/2 was determined as 20 min. Further, the IC50 in [2] came out at 500 nM. In addition, the Ratio in [3] was determined as 6 mM⁻¹ s⁻¹.
Regarding `C=CC(=O)N1CC2(CC(n3nc(-c4ccccc4)c(-c4c(Cl)c(C)cc5[nH]ncc45)c3C)C2)C1`, in series [2], the IC50 is 20 nM. Also, the Occ in series [4] worked out at 40%; in series [5], 20%. In series [6], this molecule registered a solubility of 10 µM (≈ 4.72 µg/mL). Also, in series [7], the concentration at 40 min was found to be 4000 nM. Moreover, in [8], the half-life was 150 min. Further, the Ratio in series [3] was determined as 60 mM⁻¹ s⁻¹. In series [9], the logD was 4.9.
For the molecule `C=CC(=O)Nc1ccc(-c2nn(C(C)C)c(-c3c(C)ccc4[nH]ncc34)c2C)c(F)c1`, in series [1], the T1/2 came to 57 min. The Ratio in series [3] was determined as 0.2 mM⁻¹ s⁻¹.
Turning to `C=CC(=O)N1CC2(CC(n3nc(-c4ccc5c(cnn5CCN(C)C)c4)c(-c4c(Cl)c(C)cc5[nH]ncc45)c3C)C2)C1`, the IC50 in [2] stood at 30 nM. The apparent permeability from apical to basolateral (Papp A→B) at 2 h, 10 µM in [10] stood at 0.9 ×10⁻⁶ cm/s. This molecule also had a Cmax in series [11] of 300 nM. Further, the solubility in [12] came to 850 µM (≈ 496 µg/mL). For the same molecule, the Ratio in [3] was 150 mM⁻¹ s⁻¹. For the same molecule, in series [13], the AUC was determined as 0.5 µM·h. Also, in series [9], the logD came to 3.7.
With `C=CC(=O)Nc1ccc(-n2nc(C)c(-c3c(C)ccc4[nH]ncc34)c2C)cc1`, in series [3], the Ratio came out at 0.1 mM⁻¹ s⁻¹.
For `C=CC(=O)N1CC2(CC(n3nc(C4CCCCC4)c(-c4c(Cl)ccc5[nH]ncc45)c3C)C2)C1`, the IC50 in series [2] amounted to 700 nM. Also, the Ratio in [3] worked out at 0.9 mM⁻¹ s⁻¹.
As for `C=CC(=O)N1CC2(CC(n3nc(-c4cccnc4)c(-c4c(Cl)c(C)cc5[nH]ncc45)c3CC#N)C2)C1`, the Ratio in series [3] turned out to be 0.2 mM⁻¹ s⁻¹.
For the molecule `C=CC(=O)Nc1ccc(-n2nc(C(C)C)c(-c3c(C)ccc4[nH]ncc34)c2C)c(C)c1`, the T1/2 in series [1] was 107 min. In addition, the IC50 in series [2] stood at 1500 nM. The Ratio in series [3] was 1.7 mM⁻¹ s⁻¹.
Turning to `C=CC(=O)N1CC2(CC(n3nc(C4CCCCC4)c(-c4c(C)ccc5[nH]ncc45)c3C)C2)C1`, the Ratio in series [3] is 0.3 mM⁻¹ s⁻¹.
Consider `C=CC(=O)N1CC2(CC(n3nc(-c4ccc5nnccc5c4)c(-c4c(Cl)c(C)cc5[nH]ncc45)c3C)C2)C1`, for which, in [10], the Papp A→B at 2 h, 10 µM is 6.1 ×10⁻⁶ cm/s. Moreover, the solubility in series [6] amounted to 10 µM (≈ 5.24 µg/mL). In series [3], the Ratio came to 25 mM⁻¹ s⁻¹. Moreover, the logD in series [9] was determined as 4.1.
On to `C=CC(=O)N1CC2(CC(n3nc(C(C)C)c(-c4c(C)ccc5[nH]ncc45)c3C)C2)C1`, for which, in series [2], the IC50 was 3900 nM. The Ratio in [3] amounted to 0.4 mM⁻¹ s⁻¹.
As for `C=CC(=O)Nc1ccc(-n2nc(C)c(-c3c(C)ccc4[nH]ncc34)c2C)c(F)c1`, the T1/2 in series [1] turned out to be 30 min. Further, in series [3], the Ratio was found to be 0.5 mM⁻¹ s⁻¹.
Turning to `C=CC(=O)N1CC2(CC(n3nc(-c4ccccn4)c(-c4c(Cl)c(C)cc5[nH]ncc45)c3C)C2)C1`, in series [3], the Ratio came out at 7 mM⁻¹ s⁻¹.
For `C=CC(=O)N1CC2(CC(n3nc(-c4cccnc4)c(-c4c(Cl)ccc5[nH]ncc45)c3C)C2)C1`, the concentration for half-maximal inhibition (IC50) in series [2] came to 500 nM. In addition, in series [3], the Ratio worked out at 1.3 mM⁻¹ s⁻¹.
On to `C=CC(=O)N1CC2(CC(n3nc(-c4ccc5c(c4)ncn5C)c(-c4c(Cl)c(C)cc5[nH]ncc45)c3C)C2)C1`, for which the half-maximal inhibitory concentration (IC50) in [2] is 140 nM. Besides, the Papp A→B at 2 h, 10 µM in series [10] came out at 3.8 ×10⁻⁶ cm/s. The solubility in series [6] was 40 µM (≈ 21 µg/mL). Besides, in series [3], the Ratio was found to be 24 mM⁻¹ s⁻¹. The logD in series [9] was determined as 3.9.
For `C=CC(=O)N1CC2(CC(n3nc(-c4ccc5c(cnn5CCOC)c4)c(-c4c(Cl)c(C)cc5[nH]ncc45)c3C)C2)C1`, in [2], the IC50 was 8 nM. For the same molecule, the Occ in [14], in series [15], in series [16] and in series [17] was 100% in each case. Moreover, the solubility in [6] was 10 µM (≈ 5.7 µg/mL). Further, the Cmax in series [11] came to 600 nM. In series [3], the Ratio is 190 mM⁻¹ s⁻¹. In addition, the exposure (AUC) in series [13] is 1.5 µM·h. In [9], this molecule had a logD of 4.5.
In the case of `C=CC(=O)N1CC2(CC(n3nc(-c4ccc5cn[nH]c5c4)c(-c4c(Cl)c(C)cc5[nH]ncc45)c3C)C2)C1`, the half-inhibitory concentration (IC50) in series [2] stood at 50 nM. Besides, the Ratio in [3] is 19 mM⁻¹ s⁻¹.
With `C=CC(=O)N1CC2(CC(n3nc(-c4cccnc4)c(-c4c(Cl)c(C)cc5[nH]ncc45)c3C(F)F)C2)C1`, the Ratio in series [3] stood at 3 mM⁻¹ s⁻¹.
Take `C=CC(=O)N1CC2(CC(n3nc(-c4ccc5[nH]ncc5c4)c(-c4c(Cl)c(C)cc5[nH]ncc45)c3C)C2)C1`: in series [2], the IC50 came to 20 nM. Besides, in series [10], the Papp A→B at 2 h, 10 µM amounted to 0.6 ×10⁻⁶ cm/s. Further, the concentration in solution in series [6] (solubility) came to 10 µM (≈ 5.12 µg/mL). Moreover, in [3], the Ratio stood at 116 mM⁻¹ s⁻¹. The logD in series [9] came out at 4.6.
Consider `C=CC(=O)N1CC2(CC(n3nc(-c4ccc5nn(CCN6CCOCC6)cc5c4)c(-c4c(Cl)c(C)cc5[nH]ncc45)c3C)C2)C1`, for which the IC50 in series [2] is 10 nM. In [10], the Papp A→B at 2 h, 10 µM stood at 2.8 ×10⁻⁶ cm/s. For the same molecule, the figures for the solubility in series [6] and in series [12] were 30 µM (≈ 18.8 µg/mL) and more than 1000 µM, respectively. The Ratio in series [3] worked out at 190 mM⁻¹ s⁻¹. Moreover, in series [9], the logD is 4.2.
Consider `C=CC(=O)N1CC2(CC(n3nc(-c4ccc5nn(CCOC)cc5c4)c(-c4c(Cl)c(C)cc5[nH]ncc45)c3C)C2)C1`, for which the IC50 in series [2] stood at 4 nM. Moreover, in series [10], the apical-to-basolateral permeability (Papp A→B) at 2 h, 10 µM was 5.4 ×10⁻⁶ cm/s. The same molecule showed a solubility in series [6] of 30 µM (≈ 17.1 µg/mL). This molecule had a Cmax in series [11] of 4300 nM. Also, the Occ was 37% in series [18], 59% in series [16], 45% in series [19] and 78% in series [17]. In series [3], the Ratio was 225 mM⁻¹ s⁻¹. The AUC in series [13] came to 7.3 µM·h. This molecule also came in with a logD in series [9] of 4.2.
`C=CC(=O)N1CC2(CC(n3nc(-c4cccnc4)c(-c4c(Cl)c(C)cc5[nH]ncc45)c3C)C2)C1`: the IC50 in series [2] came out at 90 nM. In series [3], the Ratio was found to be 10 mM⁻¹ s⁻¹.
In the case of `C=CC(=O)Nc1ccc(-n2nc(C(C)C)c(-c3c(C)ccc4[nH]ncc34)c2C)cc1`, the Ratio in [3] was found to be 0.6 mM⁻¹ s⁻¹.
